Active and inactive are the calls of the source. The calls are words filed in the database; no cut-off is given here.

Experimental findings from ChEMBL document CHEMBL4627384, “l-Thyroxin and the Nonclassical Thyroid Hormone TETRAC Are Potent Activators of PPARγ” (J Med Chem, 2020) are described below.

Test [1] addresses T1, Retinoic acid receptor RXR-alpha (Homo sapiens) (UniProt P19793).
T1 sequence (whole entry): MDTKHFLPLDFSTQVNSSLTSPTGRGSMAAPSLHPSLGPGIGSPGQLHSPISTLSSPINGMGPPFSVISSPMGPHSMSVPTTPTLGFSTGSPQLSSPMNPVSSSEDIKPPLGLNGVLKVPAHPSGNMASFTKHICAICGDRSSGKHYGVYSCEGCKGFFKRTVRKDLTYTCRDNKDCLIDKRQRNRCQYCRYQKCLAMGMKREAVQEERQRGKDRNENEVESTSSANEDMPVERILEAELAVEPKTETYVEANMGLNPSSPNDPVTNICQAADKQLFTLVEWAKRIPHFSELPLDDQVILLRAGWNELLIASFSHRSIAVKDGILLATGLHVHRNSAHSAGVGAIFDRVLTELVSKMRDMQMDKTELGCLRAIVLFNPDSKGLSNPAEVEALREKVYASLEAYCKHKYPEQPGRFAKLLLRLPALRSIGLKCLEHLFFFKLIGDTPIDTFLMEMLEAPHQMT
As to the kind of experiment: Agonist activity at recombinant human pFA-CMV fused RXRalpha LBD expressed in HEK293T cells transfected with pFR-luciferase plasmid and pRL-SV40 plasmid at 10 uM incubated for 14 to 16 hrs by dual glo luciferase reporter gene assay. Type of test: cell-based. The note with it: HEK-293T. A general note: A reporter such as luciferase makes a cellular process visible.

The target in test [2] is T2, Retinoic acid receptor RXR-beta (Homo sapiens) (UniProt P28702).
T2 sequence (whole entry): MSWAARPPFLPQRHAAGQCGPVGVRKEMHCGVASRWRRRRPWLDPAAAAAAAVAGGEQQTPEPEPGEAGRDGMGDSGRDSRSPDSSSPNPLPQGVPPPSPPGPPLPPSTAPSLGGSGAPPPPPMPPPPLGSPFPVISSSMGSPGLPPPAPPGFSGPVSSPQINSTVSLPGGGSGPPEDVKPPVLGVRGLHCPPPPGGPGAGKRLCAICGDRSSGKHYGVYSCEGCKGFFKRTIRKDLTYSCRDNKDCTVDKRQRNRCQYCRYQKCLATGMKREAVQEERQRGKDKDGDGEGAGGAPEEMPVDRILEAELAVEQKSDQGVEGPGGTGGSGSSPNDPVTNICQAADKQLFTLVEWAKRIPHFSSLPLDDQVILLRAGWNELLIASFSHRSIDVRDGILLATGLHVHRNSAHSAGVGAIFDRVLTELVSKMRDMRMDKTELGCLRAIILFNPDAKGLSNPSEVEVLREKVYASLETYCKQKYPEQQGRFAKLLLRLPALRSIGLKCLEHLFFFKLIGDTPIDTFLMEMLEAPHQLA
Nature of the test: Agonist activity at recombinant human pFA-CMV fused RXRbeta LBD expressed in HEK293T cells transfected with pFR-luciferase plasmid and pRL-SV40 plasmid at 10 uM incubated for 14 to 16 hrs by dual glo luciferase reporter gene assay. Type of test: cell-based. As to conditions: HEK-293T.

The target in test [3] is T3, Retinoic acid receptor RXR-gamma (Homo sapiens) (UniProt P48443).
T3 sequence (whole entry): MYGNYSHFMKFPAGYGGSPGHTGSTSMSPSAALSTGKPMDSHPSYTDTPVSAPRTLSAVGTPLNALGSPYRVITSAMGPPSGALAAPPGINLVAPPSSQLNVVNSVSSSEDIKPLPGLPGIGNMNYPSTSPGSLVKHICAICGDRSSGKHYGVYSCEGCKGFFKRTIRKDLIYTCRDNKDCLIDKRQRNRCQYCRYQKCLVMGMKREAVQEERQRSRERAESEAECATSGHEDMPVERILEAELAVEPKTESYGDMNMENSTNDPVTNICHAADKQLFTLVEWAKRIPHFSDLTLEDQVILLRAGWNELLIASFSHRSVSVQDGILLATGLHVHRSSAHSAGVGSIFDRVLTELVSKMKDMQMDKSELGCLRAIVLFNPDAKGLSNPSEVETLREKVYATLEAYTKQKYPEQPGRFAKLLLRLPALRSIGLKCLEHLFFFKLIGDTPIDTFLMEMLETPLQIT
Nature of the test: Agonist activity at recombinant human pFA-CMV fused RXRgamma LBD expressed in HEK293T cells transfected with pFR-luciferase plasmid and pRL-SV40 plasmid at 10 uM incubated for 14 to 16 hrs by dual glo luciferase reporter gene assay. Type of test: cell-based. As to conditions: HEK-293T.

For test [4], the target named is T4, Peroxisome proliferator-activated receptor gamma (Homo sapiens, UniProt P37231).
T4 sequence (P37231 whole entry): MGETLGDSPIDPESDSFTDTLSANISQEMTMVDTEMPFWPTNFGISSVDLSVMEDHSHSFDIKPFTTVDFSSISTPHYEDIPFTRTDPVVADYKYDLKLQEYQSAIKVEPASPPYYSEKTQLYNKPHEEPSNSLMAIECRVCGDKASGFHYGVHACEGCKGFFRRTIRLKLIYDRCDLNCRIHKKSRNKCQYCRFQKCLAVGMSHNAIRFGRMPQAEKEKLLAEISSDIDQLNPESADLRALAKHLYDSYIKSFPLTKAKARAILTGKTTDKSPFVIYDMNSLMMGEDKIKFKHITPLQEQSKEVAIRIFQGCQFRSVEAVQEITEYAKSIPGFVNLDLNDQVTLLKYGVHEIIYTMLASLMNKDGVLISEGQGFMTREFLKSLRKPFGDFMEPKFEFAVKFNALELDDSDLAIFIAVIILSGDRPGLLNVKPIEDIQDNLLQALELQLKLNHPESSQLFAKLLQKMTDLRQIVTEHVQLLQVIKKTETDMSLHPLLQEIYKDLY
As to the kind of experiment: Agonist activity at recombinant human pFA-CMV fused PPARgamma expressed in HEK293T cells transfected with pFR-luciferase plasmid and pRL-SV40 plasmid incubated for 14 to 16 hrs by dual glo luciferase reporter gene assay. Type of test: cell-based, HEK-293T.

For test [5], the target named is T4, Peroxisome proliferator-activated receptor gamma. Nature of the test: Binding affinity to recombinant PPARgamma LBD (unknown origin) by isothermal titration calorimetry. Background: In ITC the heat of successive injections is recorded.
Test [6] has as its target T1, Retinoic acid receptor RXR-alpha (Homo sapiens). As to the kind of experiment: Agonist activity at recombinant human pFA-CMV fused RXRalpha LBD expressed in HEK293T cells transfected with pFR-luciferase plasmid and pRL-SV40 plasmid incubated for 14 to 16 hrs by dual glo luciferase reporter gene assay relative to control. Type of test: cell-based. As to conditions: HEK-293T.

Test [7] has as its target T5, Retinoic acid receptor RXR-alpha (Homo sapiens, UniProt P19793).
T5 sequence (P19793 whole entry): T1 sequence (whole entry)
As to the kind of experiment: Agonist activity at recombinant human pFA-CMV fused RXRalpha LBD expressed in HEK293T cells transfected with pFR-luciferase plasmid and pRL-SV40 plasmid incubated for 14 to 16 hrs by dual glo luciferase reporter gene assay. As to conditions: read-out: EC50. The format is cell-based, HEK-293T.

Test [8] addresses T5, Retinoic acid receptor RXR-alpha. Nature of the test: Binding affinity to RXRalpha LBD (unknown origin) by isothermal titration calorimetry.
The target in test [9] is T1, Retinoic acid receptor RXR-alpha (Homo sapiens). As to the kind of experiment: Agonist activity at GFP RXRalpha LBD (unknown origin) assessed as biotin-labeled SRC-1 recruitment incubated for 2 hrs by HT-FRET assay relative to SR11237.
The target in test [10] is T6, Peroxisome proliferator-activated receptor gamma (Homo sapiens) (UniProt P37231).
T6 sequence (whole entry): T4 sequence (P37231 whole entry)
Nature of the test: Agonist activity at PPARgamma in human HepG2 cells with THRA knockdown assessed as induction of CD36 mRNA expression incubated for 8 hrs by qPCR analysis. The format is cell-based.

Test [11] deals with T6, Peroxisome proliferator-activated receptor gamma (Homo sapiens). As to the kind of experiment: Agonist activity at PPARgamma in human HepG2 cells with THRB knockdown assessed as induction of CD36 mRNA expression incubated for 8 hrs by qPCR analysis. Type of test: cell-based. On the technique in general: Real-time PCR tracks product formation cycle by cycle.
For test [12], the system named is HEK-293T. As to the kind of experiment: Activation of renilla luciferase expressed in HEK293T cells at 0.1 uM incubated for 14 to 16 hrs by reporter gene assay. The format is cell-based. As to conditions: Renilla reniformis.

As a reminder, the EC50 is the concentration at which the effect is half-maximal. The Kd is the equilibrium constant for the complex coming apart. For `O=C(O)Cc1cc(I)c(Oc2cc(I)c(O)c(I)c2)c(I)c1` [TETRAC], the result in test [1], in test [2] and in test [3] was Active. For the same compound, the EC50 in test [4] worked out at 100 nM; in test [7], 1320 nM. For the same compound, the Kd in test [5] was 110 nM; in [8], 1500 nM. Moreover, the fold change (FC) in test [6] stood at 9.1. In addition, the Activity is 8.2% in test [9], “Dose-dependent effect” in [10] and “Dose-dependent effect” in [11]. For the same compound, the outcome in test [12] was inactive.
On to `N[C@@H](Cc1cc(I)c(Oc2cc(I)c(O)c(I)c2)c(I)c1)C(=O)O` [LEVOTHYROXINE], for which the outcome in test [1], in test [2] and in test [3] was Active. The figures for the EC50 in [4] and in test [7] were 12000 nM and 15400 nM, respectively. Also, the figures for the Kd in test [5] and in [8] were 400 nM and 930 nM, respectively. For the same compound, in [6], the fold change (FC) amounted to 7.4. Also, the Activity result in test [10] and in test [11] was “Dose-dependent effect” throughout.
